Results on nine molecules are retold here after patent US9566312B2, “Cyclic peptides and use as medicines” (priority 2012, dated 2017).

Molecules are shown by their SMILES. Starred links: 1 amine or outer side, 2 acyl side, 3 side chain; linkers in the order of their positions; H or OH if unused. Non-standard residues stand in square brackets, D forms with d. Residues, ends and D or L forms follow the SMILES beside them. X1 = COC[C@@H]1CN(C[C@H](C)[C@@H](C(=O)[*:2])N(C)[*:1])CCO1; X60 = C[C@H](CCCN1CC2CCC(C1)N2C)[C@@H](C(=O)[*:2])N(C)[*:1]; X83 = C[C@H](COC(=O)N1CCC(O)CC1)[C@@H](C(=O)[*:2])N(C)[*:1]; X39 = C[C@H](CN1CCC(C#N)CC1)[C@@H](C(=O)[*:2])N(C)[*:1]; X47 = C[C@H](CN1CCC(F)(F)C1)[C@@H](C(=O)[*:2])N(C)[*:1]; MeBmt = C/C=C/C[C@@H](C)[C@@H](O)[C@H](NC)C(=O)O; X86 = C[C@@H](CO)[C@@H](C(=O)[*:2])N(C)[*:1]; NMeL = CN[C@@H](CC(C)C)C(=O)O; NMeV = CN[C@H](C(=O)O)C(C)C; dNMeA = CN[C@H](C)C(=O)O; Abu = CC[C@H](N)C(=O)O

Test [1] concerns genotype 1b subgenomic HCV replicon in Huh7.5 cells. Type of test: cell-based, hepatitis C virus. The note with it: genotype 1b replicon, 72 h incubation; read-out: RPLN-1b IC50. The procedure: Method 2: Measuring Inhibitory Effects in a HCV Replicon System
Susceptibility to compounds was analyzed in Huh7.5 cells containing genotype 1a or 1b subgenomic HCV replicons co-expressing a luciferase reporter gene. The original replicons, pFK389lucubineo_3_3′_ET and pH/SG-Neo(L+I), were licensed from ReBlicon GmbH (Germany) and Apath LLC (Saint Louis, Mo.), respectively. The firefly reporter gen was replaced by renilla luciferase reporter gene using standard molecular biology techniques as follows.
Generation of genotype 1b subgenomic replicon: The renilla […]-neomycin phosphotransferase cassette was amplified from pF9 cytomegalovirus (CMV) hRluc-Neo Flexi(R) (Promega) by PCR using Accuprime super mix II (Invitrogen) and a primer set of Ascl hRlucNeo Fwd and NotI hRluc Rev. These two primers have the following sequences and introduce restriction sites for subsequent cloning: Ascl hRlucNeo Fwd, 5 […] 3(Ascl site underlined) (SEQ. ID No. 1), and NotI hRluc Rev, 5[…] 3(NotI site underlined) (SEQ ID No. 2). The amplification product was subcloned into pCR2.1-TOPO (Invitrogen). The resulting plasmid was digested with Ascl and NotI, and the excised fragment (hRluc-Neo) was ligated with the Roche Quick Ligation Kit (Roche) into pFK1389lucubineo_3_3′_ET digested with the same enzymes.
The assay medium for both, luciferase reporter HCV replicon and cytotoxicity assays contains phenol red-free DMEM and lacks G418. […] Luciferase activity of compound treated cells is measured relative to DMSO treated cells after 72 h incubation using Renilla-Glo™ Luciferase Assay (Promega). Cytotoxicity (CC50) is analyzed using Cell Titer-Glo™ (Promega).

In the next test the target is cyclophilin B (CypB) (Homo sapiens (Human), UniProt P23284). The test can be described thus: Inhibitor binding to cyclophilin proteins by SPR, CypB. More on the design: unit not given here. The note with it: 1:1 binding model. How it is done: (§1) Method 1: Measuring Inhibitor Binding to Cyclophilin Proteins
Chain of cyclophilin B (CypB) (P23284 34-216): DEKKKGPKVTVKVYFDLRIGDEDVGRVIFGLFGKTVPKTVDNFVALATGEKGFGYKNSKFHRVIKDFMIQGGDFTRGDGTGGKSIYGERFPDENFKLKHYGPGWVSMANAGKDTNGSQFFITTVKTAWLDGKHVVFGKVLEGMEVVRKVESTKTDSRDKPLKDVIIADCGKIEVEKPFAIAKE
(§2) Binding of inhibitors to expressed cyclophilins was determined using surface plasmon resonance (SPR) experiments. Briefly, avi-tagged cyclophilin proteins with mono-biotinylation were immobilized onto a Biotin CAPture chip (GE Healthcare, cat. #28920234). SPR experiments were carried out on an upgraded Biacore T200 system using a running buffer containing the inhibitor, 10 mM HEPES, pH 7.4, 150 mM NaCl, 0.05% P20, and 3% DMSO. Single-cycle kinetics measurements were used to study the interactions between cyclophilin inhibitors and different cyclophlins. Accordingly, compound at various concentrations was injected to the flow cells with a contact time of 1 min each at a flow rate of 50 μL/min. The final dissociation phase lasts for 10 min following the sample injection. Data was analyzed using Biacore T200 Evaluation Software Version 1.0 and a 1:1 binding model was applied to fit the data to obtain kon, koff, and KD.
Background: Surface plasmon resonance follows binding to a sensor surface in real time, without labels.

The subject of test [2] is peripheral blood mononuclear cells (PBMC). The test can be described thus: Anti-proliferative or immunosuppressive activity, BrdU incorporation in PHA-stimulated PBMC. Type of test: cell-based. The note with it: PHA 3 μg/ml, 60 hour compound treatment; read-out: EMV PBMC IC50. The procedure: Method 3: Measuring Anti-Proliferative or Immunosuppressive Activity
The potential anti-proliferative activity of compounds on T-cells was analyzed based on the amount of bromodesoxy uridine (BrdU) incorporated into DNA of fresh peripheral blood mononuclear cells (PBMC) using the BrdU ELISA kit (Roche). The assay is performed in 96-well plate format with 30,000 PBMCs seeded per well in X-VIVO 15 medium (Lonza). T-cell proliferation was stimulated by addition of 3 μg/ml phytohemagglutinin (PHA) in PBMCs obtained from two donors.
On the technique in general: Uptake of a labelled nucleoside into DNA is a usual measure of proliferation.

A further test has as its target CypF (Homo sapiens (Human), UniProt P30405). The test can be described thus: Inhibitor binding to cyclophilin proteins by SPR, CypF. The note with it: 1:1 binding model. How it is done: as §1, §2
Another test has as its target cyclophilin A (CypA) (Homo sapiens (Human), UniProt P62937). The test can be described thus: Inhibitor binding to cyclophilin proteins by SPR, CypA. More on the design: unit not given here. The settings on record: 1:1 binding model.

Chain of cyclophilin A (CypA) (P62937 whole entry): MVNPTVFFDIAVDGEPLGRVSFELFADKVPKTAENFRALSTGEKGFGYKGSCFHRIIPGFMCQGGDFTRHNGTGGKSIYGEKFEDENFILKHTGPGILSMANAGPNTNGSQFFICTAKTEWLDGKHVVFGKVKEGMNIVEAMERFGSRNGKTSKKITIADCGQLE
Chain of CypF (P30405 30-207): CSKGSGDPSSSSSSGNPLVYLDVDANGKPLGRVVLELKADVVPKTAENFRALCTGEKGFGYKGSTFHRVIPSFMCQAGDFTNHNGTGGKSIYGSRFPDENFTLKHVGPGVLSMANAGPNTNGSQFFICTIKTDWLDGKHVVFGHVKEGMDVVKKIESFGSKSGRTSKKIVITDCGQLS

Broadly, the IC50 is the concentration that inhibits the measured activity by half. Turning to `C/C=C/C[C@@H](C)[C@@H](O)[C@H]1C(=O)N[C@@H](CC)C(=O)N(C)[C@H](C)C(=O)N(C)[C@@H]([C@@H](C)CO)C(=O)N[C@@H](C(C)C)C(=O)N(C)[C@@H](CC(C)C)C(=O)N[C@@H](C)C(=O)N[C@H](C)C(=O)N(C)[C@@H](CC(C)C)C(=O)N(C)[C@@H](CC(C)C)C(=O)N(C)[C@@H](C(C)C)C(=O)N1C` [Compound 2.17.13, 3-[D-Ala]-4-[(2S,3R)-4-hydroxy-3-methyl-2-(methylamino)butanoyl]-cyclosporin] (cyclo(A[dA][NMeL][NMeL][NMeV][MeBmt][Abu][dNMeA][X86]V[NMeL])), the IC50 in test [1] is 85 nM.

`C/C=C/C[C@@H](C)[C@@H](O)[C@H]1C(=O)N[C@@H](CC)C(=O)N(C)[C@H](C)C(=O)N(C)[C@@H]([C@H](C)COC(=O)N(C)C2CCN(C)CC2)C(=O)N[C@@H](C(C)C)C(=O)N(C)[C@@H](CC(C)C)C(=O)N[C@@H](C)C(=O)N[C@H](C)C(=O)N(C)[C@@H](CC(C)C)C(=O)N(C)[C@@H](CC(C)C)C(=O)N(C)[C@@H](C(C)C)C(=O)N1C` [Compound 2.5.32, 3-[D-Ala]-4-[(2S,3S)-3-methyl-4-((methyl(1-methylpiperidin-4-yl)carbamoyl)oxy)-2-(methylamino)butanoyl]-cyclosporin]: at cyclophilin B (CypB), the “CypB Kd” value is 0.5. Moreover, the IC50 in test [2] was determined as 9500 nM; in test [1] it was 150 nM. The molecule also displayed a CypF Kd at CypF of 0.4 nM. At cyclophilin A (CypA), the “CypA Kd” value was found to be 0.7.

With `C/C=C/C[C@@H](C)[C@@H](O)[C@H]1C(=O)N[C@@H](CC)C(=O)N(C)[C@H](C)C(=O)N(C)[C@@H]([C@H](C)CCCN2CC3CCC(C2)N3C)C(=O)N[C@@H](C(C)C)C(=O)N(C)[C@@H](CC(C)C)C(=O)N[C@@H](C)C(=O)N[C@H](C)C(=O)N(C)[C@@H](CC(C)C)C(=O)N(C)[C@@H](CC(C)C)C(=O)N(C)[C@@H](C(C)C)C(=O)N1C` [Compound 2.19.3] (cyclo(A[dA][NMeL][NMeL][NMeV][MeBmt][Abu][dNMeA][X60]V[NMeL])), on cyclophilin B (CypB), the “CypB Kd” value is listed as 0.4. Moreover, the figures for the IC50 in test [2] and in test [1] were 2000 nM and 290 nM, respectively. The CypF Kd on CypF amounted to 0.3 nM. Moreover, at cyclophilin A (CypA), the “CypA Kd” value is recorded as 0.8.

Regarding `C/C=C/C[C@@H](C)[C@@H](O)[C@H]1C(=O)N[C@@H](CC)C(=O)N(C)[C@H](C)C(=O)N(C)[C@@H]([C@H](C)CN2CCC(C#N)CC2)C(=O)N[C@@H](C(C)C)C(=O)N(C)[C@@H](CC(C)C)C(=O)N[C@@H](C)C(=O)N[C@H](C)C(=O)N(C)[C@@H](CC(C)C)C(=O)N(C)[C@@H](CC(C)C)C(=O)N(C)[C@@H](C(C)C)C(=O)N1C` [Compound 2.5.26, 3-[D-Ala]-4-[(2S,3R)-4-(4-cyanopiperidin-1-yl)-3-methyl-2-(methylamino)butanoyl]-cyclosporin] (cyclo(A[dA][NMeL][NMeL][NMeV][MeBmt][Abu][dNMeA][X39]V[NMeL])), the “CypB Kd” value on cyclophilin B (CypB) is 0.8. Further, the IC50 worked out at 11600 nM in test [2] and 29 nM in test [1]. The molecule also yielded a CypF Kd at CypF of 0.8 nM. Moreover, on cyclophilin A (CypA), the “CypA Kd” value turned out to be 1.3.

As to `C/C=C/C[C@@H](C)[C@@H](O)[C@H]1C(=O)N[C@@H](CC)C(=O)N(C)[C@H](C)C(=O)N(C)[C@@H]([C@@H](C)CN2CCO[C@H](COC)C2)C(=O)N[C@@H](C(C)C)C(=O)N(C)[C@@H](CC(C)C)C(=O)N[C@@H](C)C(=O)N[C@H](C)C(=O)N(C)[C@@H](CC(C)C)C(=O)N(C)[C@@H](CC(C)C)C(=O)N(C)[C@@H](C(C)C)C(=O)N1C` [Compound 2.17.11, 3-[D-Ala]-4-[(2S,3S)-4-((S)-2-(methoxymethyl)morpholino)-3-methyl-2-(methylamino)butanoyl]-cyclosporin] (cyclo(A[dA][NMeL][NMeL][NMeV][MeBmt][Abu][dNMeA][X1]V[NMeL])), at cyclophilin B (CypB), the “CypB Kd” value stood at 0.7. Also, the IC50 was determined as 36400 nM in test [2] and 22 nM in test [1]. Moreover, the CypF Kd on CypF turned out to be 0.6 nM. The “CypA Kd” value at cyclophilin A (CypA) was 1.1.

With `C/C=C/C[C@@H](C)[C@@H](O)[C@H]1C(=O)N[C@@H](CC)C(=O)N(C)[C@H](C)C(=O)N(C)[C@@H]([C@H](C)CN2CCC(F)(F)C2)C(=O)N[C@@H](C(C)C)C(=O)N(C)[C@@H](CC(C)C)C(=O)N[C@@H](C)C(=O)N[C@H](C)C(=O)N(C)[C@@H](CC(C)C)C(=O)N(C)[C@@H](CC(C)C)C(=O)N(C)[C@@H](C(C)C)C(=O)N1C` [Compound 2.5.18, 3-[D-Ala]-4-[(2S,3R)-4-(3,3-difluoropyrrolidin-1-yl)-3-methyl-2-(methylamino)butanoyl]-cyclosporin] (cyclo(A[dA][NMeL][NMeL][NMeV][MeBmt][Abu][dNMeA][X47]V[NMeL])), the “CypB Kd” value at cyclophilin B (CypB) was 1.8. In addition, the results for the IC50 in test [2] and in test [1] were 12100 nM and 9 nM, respectively. The molecule further showed a CypF Kd at CypF of 2 nM. The “CypA Kd” value at cyclophilin A (CypA) was 3.9.

For the molecule `CCCC[C@@H](C)[C@@H](O)[C@H]1C(=O)N[C@@H](CC)C(=O)N(C)[C@H](C)C(=O)N(C)[C@@H]([C@H](C)COCCN2CCOCC2)C(=O)N[C@@H](C(C)C)C(=O)N(C)[C@@H](CC(C)C)C(=O)N[C@@H](C)C(=O)N[C@H](C)C(=O)N(C)[C@@H](CC(C)C)C(=O)N(C)[C@@H](CC(C)C)C(=O)N(C)[C@@H](C(C)C)C(=O)N1C` [Compound 2.8.10, 1-dihydro-3-[D-Ala]-4-[(2S,3S)-3-methyl-2-(methylamino)-4-(2-morpholinoethoxy)butanoyl]-cyclosporin], the “CypB Kd” value at cyclophilin B (CypB) worked out at 1.2. The figures for the IC50 in test [2] and in test [1] were 14500 nM and 110 nM, respectively. This molecule registered a CypF Kd at CypF of 1.1 nM. In addition, the “CypA Kd” value at cyclophilin A (CypA) stood at 2.1.

`CCCC[C@@H](C)[C@@H](O)[C@H]1C(=O)N[C@@H](CC)C(=O)N(C)[C@H](C)C(=O)N(C)[C@@H]([C@@H](C)CN2CCO[C@H](COC)C2)C(=O)N[C@@H](C(C)C)C(=O)N(C)[C@@H](CC(C)C)C(=O)N[C@@H](C)C(=O)N[C@H](C)C(=O)N(C)[C@@H](CC(C)C)C(=O)N(C)[C@@H](CC(C)C)C(=O)N(C)[C@@H](C(C)C)C(=O)N1C` [Compound 2.17.12, 1-dihydro-3-[D-Ala]-4-[(2S,3S)-4-((S)-2-(methoxymethyl)morpholino)-3-methyl-2-(methylamino)butanoyl]-cyclosporin]: at cyclophilin B (CypB), the “CypB Kd” value is listed as 0.7. Moreover, at CypF, the CypF Kd worked out at 0.8 nM. In addition, the IC50 in test [1] came out at 75 nM. Also, the “CypA Kd” value on cyclophilin A (CypA) is recorded as 1.7.

For `C/C=C/C[C@@H](C)[C@@H](O)[C@H]1C(=O)N[C@@H](CC)C(=O)N(C)[C@H](C)C(=O)N(C)[C@@H]([C@H](C)COC(=O)N2CCC(O)CC2)C(=O)N[C@@H](C(C)C)C(=O)N(C)[C@@H](CC(C)C)C(=O)N[C@@H](C)C(=O)N[C@H](C)C(=O)N(C)[C@@H](CC(C)C)C(=O)N(C)[C@@H](CC(C)C)C(=O)N(C)[C@@H](C(C)C)C(=O)N1C` [Compound 2.5.8, 3-[D-Ala]-4-[(2S,3S)-4-((4-hydroxypiperidine-1-carbonyl)oxy)-3-methyl-2-(methylamino)butanoyl]-cyclosporin] (cyclo(A[dA][NMeL][NMeL][NMeV][MeBmt][Abu][dNMeA][X83]V[NMeL])), the “CypB Kd” value on cyclophilin B (CypB) was 1.0. The CypF Kd on CypF is 1 nM. Also, at cyclophilin A (CypA), the “CypA Kd” value is 1.7.
